Experimental data taken from patent publication US20220305136A1, “ANTI-CTLA4 CONJUGATES” (Ascendis Pharma Oncology Division A/S, priority 2019, published 2022).

Experiments:
MC38 tumor cells [1] = experiment: In vivo anti-tumor efficacy, MC38 tumor bearing mice (Example 28); set-up: species or system C57BL/6 mice with the human CTLA-4 gene knocked in; conditions: CTLA-4 mAB 4 x 210 μg intraperitoneal days 0, 4, 8, 12, 29b single 840 μg intratumoral
Description: The study was conducted in female C57BL/6 mice with the human CTLA-4 gene knocked into the endogenous CTLA-4 locus with an age of 6-11 weeks at the day of tumor inoculation. This model is also known as a Human Genetically Engineered Mouse Model or HuGEMM. Mice were subcutaneously implanted with 1×10^6 MC38 tumor cells in the right flank. When tumors to be injected were grown to a mean tumor volume of ˜65 mm^3, mice were randomized into treatment cohorts (day 0) and treated with either: 1) a single 50 μL intratumoral injection of control hydrogel 30 or 2) a single 50 μL intratumoral injection of 840 μg of CTLA-4 mAB-linker-hydrogel prodrug 29b or 3) four total 200 μL intraperitoneal doses of 210 μg given on Days 0, 4, 8, and 12 of CTLA-4 mAB. Hydrogels were administered as suspensions in 20 mM succinate, 135 mM NaCl, 0.01% Tween-20, pH 4.0 buffer. Following treatment initiation, anti-tumor efficacy was assessed by determination of tumor volumes at various time points from tumor size measurements with a caliper. Tumor volumes were calculated according to the formula:
Tumor volume=(L×W^2)×0.5 where L is the length of the tumor and W the width (both in mm). Mice were removed from the study once tumors were greater than 3000 mm^3.

tumor immune cells = experiment: Flow cytometric profiling of tumor immune cells; type: in vivo, C57BL/6 mice with the human CTLA4 gene knocked in; conditions: day 7
Description: (§1) The study was conducted in female C57BL/6 mice with the human CTLA4 gene knocked into the endogenous CTLA4 locus with an age of 6-11 weeks at the day of tumor inoculation. This model is also known as a Human Genetically Engineered Mouse Model or HuGEMM. Mice were subcutaneously implanted with 1×10^6 MC38 tumor cells in the right flank. When tumors to be injected were grown to a mean tumor volume of ˜65 mm^3, mice were randomized into treatment cohorts (day 0) and treated with either: 1) a single 50 μL intratumoral injection of control hydrogel 30 or 2) four total 200 μL intraperitoneal doses of 18 μg given on days 0, 4, 8, and 12 of free CTLA-4 mAB, or 3) a single 50 μL intratumoral injection of 840 μg of CTLA-4 mAB-linker-hydrogel prodrug 29b or 3) a single 50 μL intratumoral injection of 72 μg of CTLA-4 mAB-linker-hydrogel prodrug 29c. Hydrogels were administered as suspensions in 20 mM succinate, 135 mM NaCl, 0.01% Tween20, pH 4.0 buffer.
Mice were sacrificed 7 days after randomization (D0). Following sacrifice, blood, spleen and tumor were isolated. Spleen samples were dissociated mechanically to generate single suspensions. Tumor samples were enzymatically and mechanically dissociated to generate single cell suspensions. Cell suspensions from spleen and tumor were centrifuged at 300 g for 5 minutes and 2×10^6 cells were used for staining. For whole blood, approximately 100 μL was used for staining. Cells were resuspended in FACS buffer with 1 μg/ml Fc-Block and incubated at 4° C. for 10 minutes in the dark. Surface marker antibody mixtures in FACS buffer were added to each sample and samples were incubated in the dark at 4° C. for 30 minutes. Red blood cell lysis buffer (Bio-gems) was added if needed and cells were further incubated at 4° C. for 10 minutes. Cells were washed twice with FACS buffer then fixed and permeabilized for 30 minutes at room temperature with Fix/Perm buffer (eBioscience). Cells were washed twice in Permeabilization Buffer and stained with intracellular antibodies in Permeabilization buffer for 30 minutes at room temperature. Cells were washed twice in FACS buffer and acquired in the presence of 123count Ebeads (eBioscience). After collection, FACS data was analyzed using FlowJo Version 10.6.1. Compensation was digitally adjusted using single antibody-stained beads, single antibody-stained cells, and fluorescence minus one (FMO) controls. CD4^+ T cells were gated as live, intact CD45+ CD3+ CD4+ events. Tregs were gated as the CD25+ FOXP3+ subset of CD4 T cells. […] The change in the mean percentage of positive cells for indicated populations relative to control treatment was calculated by the formula: mean percentage of positive cells in treated animals—mean percentage of positive cells in control treated animals.

spleen immune cells = experiment: Flow cytometric profiling of spleen immune cells; type: in vivo, C57BL/6 mice with the human CTLA4 gene knocked in; conditions: day 7; doses as E70
Description: as §1
(§2) Mice were sacrificed 7 days after randomization (D0). Following sacrifice, blood, spleen and tumor were isolated. Spleen samples were dissociated mechanically to generate single suspensions. Tumor samples were enzymatically and mechanically dissociated to generate single cell suspensions. Cell suspensions from spleen and tumor were centrifuged at 300 g for 5 minutes and 2×10^6 cells were used for staining. For whole blood, approximately 100 μL was used for staining. Cells were resuspended in FACS buffer with 1 μg/ml Fc-Block and incubated at 4° C. for 10 minutes in the dark. Surface marker antibody mixtures in FACS buffer were added to each sample and samples were incubated in the dark at 4° C. for 30 minutes. Red blood cell lysis buffer (Bio-gems) was added if needed and cells were further incubated at 4° C. for 10 minutes. Cells were washed twice with FACS buffer then fixed and permeabilized for 30 minutes at room temperature with Fix/Perm buffer (eBioscience). Cells were washed twice in Permeabilization Buffer and stained with intracellular antibodies in Permeabilization buffer for 30 minutes at room temperature. Cells were washed twice in FACS buffer and acquired in the presence of 123count Ebeads (eBioscience). After collection, FACS data was analyzed using FlowJo Version 10.6.1. Compensation was digitally adjusted using single antibody-stained beads, single antibody-stained cells, and fluorescence minus one (FMO) controls. CD4^+ T cells were gated as live, intact CD45+ CD3+ CD4+ events. Tregs were gated as the CD25+ FOXP3+ subset of CD4 T cells. CD8^+ T cells were gated as live, intact CD45+ CD3+ CD8+ events. Subgates were then defined using the controls mentioned above. The change in the mean percentage of positive cells for indicated populations relative to control treatment was calculated by the formula: mean percentage of positive cells in treated animals—mean percentage of positive cells in control treated animals.

[2] = Plasma pharmacokinetics of CTLA-4 mAB in Wistar rats; type: in vivo; conditions: n=3
Description: This study was performed in order to investigate the plasma pharmacokinetics of CTLA-4 mAB in Wistar rats following subcutaneous administration of transient CTLA-4 mAB-linker-hydrogel prodrug 29b or following subcutaneous or intravenous administration of free CTLA-4 mAB. Animals (n=3 per group) received either a single SC injection of a 29b (1 mg/kg CTLA-4 mAB equivalents) in the neck region or a single SC injection in the neck region or IV injection in the tail vein of an CTLA-4 mAB formulation (1 mg/kg CTLA-4 mAB). At selected time points, 200 μL blood were collected in L^1-Heparin tubes and processed to plasma by centrifugation at 3,000 g for 10 minutes at 4° C.
CTLA-4 mAB concentrations in rat plasma were determined with a commercial ELISA setup obtained from BioVision Inc. (CA, USA, order number E4384-100). The manufacturer's instructions were followed with minor changes to the protocol. Specifically, the plasma samples were used undiluted (except for samples above the upper limit of quantification which were diluted with blank plasma prior to the measurement) and the sample incubation time was prolonged to 60 minutes.
Calibration standards of CTLA-4 mAB in blank plasma were prepared as follows: thawed L^1-Heparin Wistar rat plasma was homogenized. The free CTLA-4 mAB formulation was spiked into blank plasma at concentrations between 5,000 ng/mL and 50 ng/mL with additional higher and lower anchor points. These solutions were used for the generation of a calibration curve. Calibration curves were analyzed via a 4-parameter logarithmic fit and 1/Y^2 weighted. The determined CTLA-4 mAB plasma concentrations are depicted in Table 1.

blood immune cells = experiment: Flow cytometric profiling of blood immune cells; type: in vivo, C57BL/6 mice with the human CTLA4 gene knocked in; conditions: day 7; doses as E70
Description: as §1, §2

MC38 tumor cells [3] = experiment: In vivo anti-tumor efficacy, MC38 tumor bearing mice (Example 33); set-up: species or system C57BL/6 mice with the human CTLA4 gene knocked in
Description: The study was conducted in female C57BL/6 mice with the human CTLA4 gene knocked into the endogenous CTLA4 locus with an age of 6-11 weeks at the day of tumor inoculation. This model is also known as a Human Genetically Engineered Mouse Model or HuGEMM. Mice were subcutaneously implanted with 1×10^6 MC38 tumor cells in the right flank. When tumors to be injected were grown to a mean tumor volume of ˜65 mm^3, mice were randomized into treatment cohorts (day 0) and treated with either: 1) a single 50 μL intratumoral injection of control hydrogel 30 or 2) four total 200 μL intraperitoneal doses of 18 μg given on days 0, 4, 8, and 12 of free CTLA-4 mAB, or 3) a single 50 μL intratumoral injection of 840 μg of CTLA-4 mAB-linker-hydrogel prodrug 29b or 3) a single 50 μL intratumoral injection of 72 μg of CTLA-4 mAB-linker-hydrogel prodrug 29c. […] Following treatment initiation, anti-tumor efficacy was assessed by determination of tumor volumes at various time points from tumor size measurements with a caliper. Tumor volumes were calculated according to the formula: Tumor volume=(L×W^2)×0.5 where L is the length of the tumor and W the width (both in mm). […] Percent tumor growth inhibition (TGI) was calculated according to the formula: [1−(Mean Tumor Volume in treated animals)/(Mean Tumor Volume in control animals)]*100.

CTLA-4 mAB: Monoclonal antibody CTLA-4 mAB (AMO-M6104, CAS No. 477202-00-9) obtained from AbMole Bioscience Inc.
Mean Tumor Volume (mm3) Day 20 (MC38 tumor cells [1]): 60.5 mm3
Increase in Percentage Positive from control hydrogel 30: Tumor CD44++ CD62L− of CD4s (tumor immune cells; CTLA-4 mAB 18 μg doses IP, 29b 840 μg IT, 29c 72 μg IT): 10.73%
Increase in Percentage Positive from control hydrogel 30: Tumor CD44++ CD62L− of CD8s (tumor immune cells; doses as E70): 6.51%
Increase in Percentage Positive from control hydrogel 30: Tumor CD69+ of CD4s (tumor immune cells; doses as E70): 2.37%
Increase in Percentage Positive from control hydrogel 30: Tumor ICOS+ of CD4s (tumor immune cells; doses as E70): 13.77%
Increase in Percentage Positive from control hydrogel 30: Spleen CD4 of T (spleen immune cells): 4.90%
Increase in Percentage Positive from control hydrogel 30: Spleen CD25+ of CD4 (spleen immune cells): 4.38%
Increase in Percentage Positive from control hydrogel 30: Spleen CD69+ of CD4 (spleen immune cells): 8.33%
Increase in Percentage Positive from control hydrogel 30: Spleen CD69+ of Treg (spleen immune cells): 9.17%
Increase in Percentage Positive from control hydrogel 30: Spleen ICOS+ of CD8s (spleen immune cells): 3.18%
Increase in Percentage Positive from control hydrogel 30: Spleen Ki67+ of CD4s (spleen immune cells): 11.75%
Increase in Percentage Positive from control hydrogel 30: Spleen Ki67+ of Tregs (spleen immune cells): 16.97%
Increase in Percentage Positive from control hydrogel 30: Spleen Treg of CD4 (spleen immune cells): 6.64%
mean CTLA-4 mAB plasma concentration ([2]; 1 h, 1 mg/kg CTLA-4 mAB (equivalents), subcutaneous, LLOQ 50 ng/mL): 170 ng/mL
mean CTLA-4 mAB plasma concentration ([2]; 1 h, 1 mg/kg intravenous): 18000 ng/mL
mean CTLA-4 mAB plasma concentration ([2]; 4 h, 1 mg/kg CTLA-4 mAB (equivalents), subcutaneous, LLOQ 50 ng/mL): 600 ng/mL
mean CTLA-4 mAB plasma concentration ([2]; 4 h, 1 mg/kg intravenous): 14000 ng/mL
mean CTLA-4 mAB plasma concentration ([2]; 24 h, 1 mg/kg CTLA-4 mAB (equivalents), subcutaneous): 3700 ng/mL
mean CTLA-4 mAB plasma concentration ([2]; 24 h, 1 mg/kg intravenous): 9600 ng/mL
mean CTLA-4 mAB plasma concentration ([2]; 32 h, 1 mg/kg CTLA-4 mAB (equivalents), subcutaneous): 4800 ng/mL
mean CTLA-4 mAB plasma concentration ([2]; 32 h, 1 mg/kg intravenous): 7500 ng/mL
mean CTLA-4 mAB plasma concentration ([2]; 48 h, 1 mg/kg CTLA-4 mAB (equivalents), subcutaneous): 6200 ng/mL
mean CTLA-4 mAB plasma concentration ([2]; 48 h, 1 mg/kg intravenous): 6000 ng/mL
mean CTLA-4 mAB plasma concentration ([2]; 72 h, 1 mg/kg CTLA-4 mAB (equivalents), subcutaneous): 6900 ng/mL
mean CTLA-4 mAB plasma concentration ([2]; 72 h, 1 mg/kg intravenous): 4900 ng/mL
mean CTLA-4 mAB plasma concentration ([2]; 96 h, 1 mg/kg CTLA-4 mAB (equivalents), subcutaneous): 6100 ng/mL
mean CTLA-4 mAB plasma concentration ([2]; 96 h, 1 mg/kg intravenous): 4000 ng/mL
mean CTLA-4 mAB plasma concentration ([2]; 168 h, 1 mg/kg CTLA-4 mAB (equivalents), subcutaneous): 5700 ng/mL
mean CTLA-4 mAB plasma concentration ([2]; 168 h, 1 mg/kg intravenous): 3100 ng/mL
Increase in Percentage Positive from control hydrogel 30: Blood CD4 of T (blood immune cells): 0.53%
Increase in Percentage Positive from control hydrogel 30: Blood CD25+ of CD4 (blood immune cells): 2.88%
Increase in Percentage Positive from control hydrogel 30: Blood CD44++ CD62L− of CD4s (blood immune cells): 15.28%
Increase in Percentage Positive from control hydrogel 30: Blood CD69+ of CD4 (blood immune cells): 3.35%
Increase in Percentage Positive from control hydrogel 30: Blood CD69+ of Treg (blood immune cells): 3.69%
Increase in Percentage Positive from control hydrogel 30: Blood ICOS+ of CD4s (blood immune cells): 18.80%
Increase in Percentage Positive from control hydrogel 30: Blood ICOS+ of CD8s (blood immune cells): 9.26%
Increase in Percentage Positive from control hydrogel 30: Blood Ki67+ of CD4s (blood immune cells): 14.64%
Increase in Percentage Positive from control hydrogel 30: Blood Treg of CD4 (blood immune cells): 2.22%
Percent Tumor Growth Inhibition (MC38 tumor cells [3]; day 20, vs control hydrogel 30, doses as E66): 97.3%
Mean Tumor Volume (mm3) (MC38 tumor cells [3]; day 20, CTLA-4 mAB 4 x 18 μg intraperitoneal days 0, 4, 8, 12, 29b single 840 μg intratumoral, 29c single 72 μg intratumoral): 57.1 mm3
